Experimental data reported in article PMC10059083, “Design, Synthesis, and Biological Evaluation of Novel Hydroxamic Acid-Based Organoselenium Hybrids” (Pharmaceuticals, 2023).
In brackets after ≈: the same amount, converted by molar mass. Where two headings read alike, the source gives them in different places.

Columns and labels:
[1] = DPPH radical scavenging assay; settings: for antioxidant (scavenging) activity in the DPPH assay: compounds 200 µL, 1 mM in MeOH, DPPH 400 µL, 30 min, absorbance at 517 nm
Procedure: (§1) The antioxidant activities of the OSe compounds were intensively investigated because these are usually the cause of their chemopreventive potency. Their redox activities were evaluated via DPPH and ABTS assays, using ascorbic acid as the standard. We spectrophotometrically measured the antioxidant efficiency of the OSe compounds by their ability to decolorise the DPPH^. and ABTS^. radicals at […] (Figure 2).
(§2) The compounds’ antioxidant properties were assessed by in vitro bioassays using DPPH and ABTS, following the reported method. Details are in the Supplementary Materials.
(§3) Figure 4 Estimation of the OSe compounds’ redox activities via DPPH and ABTS experiments. All tests are mean ± S.D. ABTS experiment: absorbance was followed at 734 nm for OSe compounds (50 µL, 1 mM in MeOH) and ABTS solution (60 µL). DPPH Absorbance was monitored at 517 nm for OSe compounds (200 µL, 1 mM in MeOH) and DPPH (400 µL) after 30 min. […]
1.1.3. The antioxidant activity
1.1.3.1. The DPPH bioassay
The hydrogen atom or electron donation ability of the corresponding compounds was measured by estimating the bleaching of the purple color of a methanolic solution of DPPH [5]. This spectrophotometric assay uses stable DPPH. reagent. The sample was prepared by adding […] of the OSe compounds (1 mM in methanol) to […] DPPH in methanol. After 30 min of incubation in the dark, the absorbance was read against a blank at […]. Ascorbic acid (vitamin C) and ebselen were used as standard antioxidants (positive control). A blank sample was run without DPPH. A negative control sample was run using methanol instead of the sample. The radical scavenging activity was calculated using the following equation:
Inhibition%= (Ablank-Asample)/(Ablank)*100. […]

HepG2 cells = assay: MTT antiproliferative assay, HepG2 cells; format: cell-based; settings: for IC50: Homo sapiens, HepG2, 24 h, read-out: HepG2 IC50; for HepG2 TI (therapeutic index): ratio of IC50 against WI38 cells to IC50 against HepG2 cells
Source text: Recently, OSe agents have attracted interest due to their potential chemoprotective and antitumor properties. We have developed several OSe compounds with promising antioxidant, antimicrobial, and antitumor properties. Therefore, we estimated the OSe agents’ antiproliferative activities against different cancer cells, i.e., MCF-7 and HepG2 cells and healthy lung fibroblast WI-38 cells, using the MTT assay. The drug doxorubicin was employed as the standard. The corresponding therapeutic indices (TI) are described as the proportion of the WI38 cells IC50 to the IC50 of the cancer cell (e.g., MCF-7 and HepG2) (Table 1).
(§4) The products’ anticancer activity was examined using the MTT assay against breast (MCF-7) carcinoma cells, liver (HepG2), and normal WI-38 cells, following the previously reported method. Experimental details can be found in the Supplementary Materials.
(§5) 1.1. The biological assays
(§6) 1.1.1. The anticancer activity
(§7) The breast adenocarcinoma (MCF-7), Hepatocellular carcinoma (HEPG-2), and normal fibroblast (WI-38) cells were obtained from ATCC via Holding company for biological products and vaccines (VACSERA), Cairo, Egypt. The reagents […] medium, MTT, DMSO, and fetal bovine serum was obtained from Sigma Aldrich. Dulbecco’s modified Eagle’s medium was used as the culture medium for the cells, and the cytotoxicity was evaluated using the reported MTT assay. Doxorubicin was used as the positive reference, and the IC50 values were obtained from the corresponding dose-response curve.
(§8) This colorimetric assay is based on converting the yellow tetrazolium bromide (MTT) to a purple formazan derivative by mitochondrial succinate dehydrogenase in viable cells. Cell lines were cultured in […] medium with 10% fetal bovine serum. Antibiotics added were 100 units/ml penicillin and 100µg/ml streptomycin at 37 C in a 5% Co2 incubator. The cell lines were seeded in a 96-well plate at a density of 1.0x10^4 cells/well. at 37 C for 48 h under 5% Co2. After incubation, the cells were treated with different concentrations of compounds and incubated for 13 […]
Finally, dimethyl sulfoxide (DMSO) in the volume of 100 µl is added to each well to dissolve the purple formazan formed. The colorimetric assay is measured and recorded at an absorbance of 570 nm using a plate reader (EXL 800, USA). The percentage of the relative cell viability was calculated as (A570 of treated samples/A570 of the untreated sample) X 100. […]

MCF-7 cells = assay: MTT antiproliferative assay, MCF-7 cells; format: cell-based; settings: for IC50: Homo sapiens, MCF7, 24 h, read-out: MCF7 IC50; for MCF7 TI (therapeutic index): ratio of IC50 against WI38 cells to IC50 against MCF-7 cells
Source text: (§9) Recently, OSe agents have attracted interest due to their potential chemoprotective and antitumor properties. […] Therefore, we estimated the OSe agents’ antiproliferative activities against different cancer cells, i.e., MCF-7 and HepG2 cells and healthy lung fibroblast WI-38 cells, using the MTT assay. The drug doxorubicin was employed as the standard. The corresponding therapeutic indices (TI) are described as the proportion of the WI38 cells IC50 to the IC50 of the cancer cell (e.g., MCF-7 and HepG2) (Table 1).
as §4, §5, §6, §7, §8
(§10) Finally, dimethyl sulfoxide (DMSO) in the volume of 100 µl is added to each well to dissolve the purple formazan formed. The colorimetric assay is measured and recorded at an absorbance of 570 […]
(§11) The percentage of the relative cell viability was calculated as (A570 of treated samples/A570 of the untreated sample) X 100. […]

WI-38 cells = assay: MTT cytotoxicity assay, normal lung fibroblast WI-38 cells; format: cell-based; settings: Homo sapiens, WI-38, 24 h, read-out: WI38 IC50
Source text: as §9, §4, §5, §6, §7, §8, §10, §11

C. albicans [2] = assay: Agar diffusion assay, C. albicans; format: cell-based, Candida albicans; settings: for zone of inhibition at 20 µM: Candida albicans, read-out: C. albicans ZID (inhibition zone diameter); for C. albicans IA% (activity index): ratio of inhibition zone of compound to that of positive control (clotrimazole)
[3] = ABTS radical scavenging assay; settings: for antioxidant (scavenging) activity in the ABTS assay: compounds 50 µL, 1 mM in MeOH, ABTS solution 60 µL, absorbance at 734 nm
Procedure: as §1, §2, §3
1.1.3.2. The ABTS bioassay
The antioxidant activity of the investigated compounds was assessed using 2,2’-azino-bis(3-ethylbenzothiazoline-6-sulphonic acid (ABTS) method. The radical cation derived from ABTS was prepared by the reaction of 60 mM ABTS solution with 0.3 M manganese dioxide solution in 0.1M phosphate buffer, pH 7. Then, the mixture was shaken, centrifuged, filtered, and the absorbance (Acontrol ) of […]
the resulting green-blue solution (ABTS radical solution) was measured at wavelength 734 nm. Then, […] of 1 mg/ml test compound in phosphate-buffered methanol was added. The absorbance (Atest) was measured. The reduction in color intensity was expressed as % inhibition. The % inhibition for each […]
compound is calculated from the following equation
Inhibition% = (Acontrol-Asample)/(Acontrol)*100
Ascorbic acid (vitamin C) was used as a standard antioxidant (positive control). A blank sample was run […]
without ABTS and using MeOH/phosphate buffer (1:1) instead of the sample. A negative control sample […]
was run with MeOH/phosphate buffer (1:1) instead of a tested compound.

S. aureus [4] = assay: Agar diffusion assay, S. aureus; format: cell-based, Staphylococcus aureus; set-up: concentration or dose not given beside the values; settings: ratio of inhibition zone of compound to that of positive control (ampicillin)
Source text: (§12) The encouraging antitumor properties of the OSe compounds motivated us to evaluate their corresponding antimicrobial activities against the C. albicans fungal strain, S. aureus Gram-positive bacteria, and E. coli Gram-negative bacteria. Therefore, we applied the agar diffusion and minimum inhibitory concentration (MIC) methods using clotrimazole antifungal and ampicillin antibacterial drugs as standards.
The products’ antimicrobial properties were examined according to the previously reported method, via agar well diffusion assay against E. coli, S. aureus, and C. albicans. A microdilution method was also used to record MICs (M), following the previously reported procedure. Experimental details can be found in the Supplementary Materials. […]
1.1.2. The antimicrobial activity
The antimicrobial activities of the OSe compounds were evaluate d against C. albicans yeast as well as E. coli gram-negative and S. aureus gram-positive bacteria employing the agar well diffusion assay.
Briefly, a concentration of 1 mM was prepared for each compound by dissolving in DMSO. Paper discs of standard size […] were sterilized in an autoclave and soaked in 9 µL of the test compounds, and placed in the Petri dishes, which in turn contain a nutrient media (agar 9 g, peptone 5 g, and beef extract 3 g) seeded with the dedicated strain. Incubation lasted for 13 h at 36 0C.
Experiments were replicated three times and the antifungal clotrimazole and antibiotic ampicillin […]

S. aureus [5] = assay: Agar diffusion assay, S. aureus; format: cell-based; settings: Staphylococcus aureus; 6-mm disks soaked with 20 μM of the OSe agents; read-out: S. aureus ZID (inhibition zone diameter)
C. albicans [6] = assay: MIC by microdilution, C. albicans; format: cell-based; settings: Candida albicans; microdilution method; read-out: MIC C. albicans
Source text: as §12
The products’ antimicrobial properties were examined according to the previously reported method, via agar well diffusion assay against E. coli, S. aureus, and C. albicans. A microdilution method was also used to record MICs (M), following the previously reported procedure. Experimental details can be found in the Supplementary Materials.
Briefly, a concentration of 1 mM was prepared for each compound by dissolving in DMSO. Paper discs of standard size […] were sterilized in an autoclave and soaked in 9 µL of the test compounds, and placed in the Petri dishes, which in turn contain a nutrient media (agar 9 g, peptone 5 g, and beef extract 3 g) seeded with the dedicated strain. Incubation lasted for 13 h at 36 0C. […]

Structure (SMILES)	antioxidant (scavenging) activity in the DPPH assay [1] [%]	IC50 (HepG2 cells) [µM]	HepG2 TI (therapeutic index) (HepG2 cells)	IC50 (MCF-7 cells) [µM]	MCF7 TI (therapeutic index) (MCF-7 cells)	IC50 (WI-38 cells) [µM]	zone of inhibition at 20 µM (C. albicans [2]) [mm]	C. albicans IA% (activity index) (C. albicans [2]) [%]	antioxidant (scavenging) activity in the ABTS assay [3] [%]	IC50 ([1]; concentration causing 50% decrease in absorbance, DPPH assay) [µM]	IC50 ([3]; concentration causing 50% decrease in absorbance, ABTS assay) [µM]	S. aureus IA% (activity index) (S. aureus [4]) [%]	zone of inhibition at 20 µM (S. aureus [5]) [mm]	MIC (C. albicans [6]) [µM]	zone of inhibition at 20 µM (C. albicans [2]; 6-mm disks soaked with 20 μM of the OSe agents) [mm]
O=C(C[Se]c1ccc(N2C(=O)c3ccccc3C2=O)cc1)NOCc1ccccc1 [Compound 13, N-(benzyloxy)-2-((4-(1,3-dioxoisoindolin-2-yl)phenyl)selanyl)acetamide]	89.4	> 100	0.6	91.6 ± 4.6	0.8	61.6 ± 3.8	2	8.3	87.0						
O=C1O[C@H]([C@@H](O)CO)C(O)=C1O [Vitamin C, ascorbic acid, reference compound]	94.5								88.4	19.18 ± 0.13	28.16 ± 0.19				
O=CNc1ccc([Se]CC(=O)NOCc2ccccc2)cc1 [Compound 10, N-(benzyloxy)-2-((4-formamidophenyl)selanyl)acetamide]	64.2	83.4 ± 4.2	0.5	49.3 ± 3.1	0.8	37.4 ± 2.6	7	29.2	64.7			28.6	6		
Clc1ccccc1C(c1ccccc1)(c1ccccc1)n1ccnc1 [Clotrimazole, clotrimazole, reference compound]								100						2 (≈ 0.69 µg/mL)	24
